Assay results published in a compilation of properties of binary mixtures (doi:10.1007/s10953-020-00968-2).

Assay: xn = mol fraction of the nth substance listed
Conditions: 101 kPa

O + CS(=O)(=O)[O-].C[N+](C)(CCO)CCO
x2 = 0
Conditions	viscosity [mPa·s]
298.15 K	0.877
303.15 K	0.789
313.15 K	0.654

CS(=O)(=O)[O-].C[N+](C)(CCO)CCO + O
viscosity [mPa·s]
Conditions	x1 = 0.0989	x1 = 0.1991	x1 = 0.2989	x1 = 0.3971	x1 = 0.4797	x1 = 0.5983	x1 = 0.6984	x1 = 0.7942	x1 = 0.8928	x1 = 1
298.15 K	4.55	–	36.9	77.5	148	288	460	796	1034	1495
303.15 K	3.91	12.42	–	60.6	113	212	–	558	718	1021
308.15 K	3.45	10.56	24.6	48.3	78.7	160	246	403	510	716
313.15 K	3.06	9.06	20.5	39	–	123.5	–	296	374	513
318.15 K	2.74	7.85	–	32.1	–	86.9	142.8	223	279	–
323.15 K	2.51	–	14.75	26.7	–	69.4	–	171	212	–
